Here are results for 2 compounds from ChEMBL document CHEMBL2150932, “Structure-activity relationships and molecular modeling of 1,2,4-triazoles as adenosine receptor antagonists” (ACS Med Chem Lett, 2012).

Test [1] deals with T1, Adenosine receptor A1 (Homo sapiens) (UniProt P30542).
T1 sequence (whole entry): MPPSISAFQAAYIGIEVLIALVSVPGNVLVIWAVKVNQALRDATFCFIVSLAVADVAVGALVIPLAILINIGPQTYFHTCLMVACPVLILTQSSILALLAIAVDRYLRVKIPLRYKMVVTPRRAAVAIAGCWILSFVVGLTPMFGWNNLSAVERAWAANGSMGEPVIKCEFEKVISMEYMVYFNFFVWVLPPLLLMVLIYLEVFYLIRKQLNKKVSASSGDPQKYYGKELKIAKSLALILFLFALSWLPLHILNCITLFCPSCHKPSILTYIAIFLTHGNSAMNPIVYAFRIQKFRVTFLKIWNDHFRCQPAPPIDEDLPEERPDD
Description: Inhibition of human A1 adenosine receptor expressed in CHO cells at 10 uM after 60 mins by liquid scintillation counting. Format: cell-based.

Test [2] has as its target T2, Adenosine receptor A3 (Homo sapiens) (UniProt P0DMS8).
T2 sequence (whole entry): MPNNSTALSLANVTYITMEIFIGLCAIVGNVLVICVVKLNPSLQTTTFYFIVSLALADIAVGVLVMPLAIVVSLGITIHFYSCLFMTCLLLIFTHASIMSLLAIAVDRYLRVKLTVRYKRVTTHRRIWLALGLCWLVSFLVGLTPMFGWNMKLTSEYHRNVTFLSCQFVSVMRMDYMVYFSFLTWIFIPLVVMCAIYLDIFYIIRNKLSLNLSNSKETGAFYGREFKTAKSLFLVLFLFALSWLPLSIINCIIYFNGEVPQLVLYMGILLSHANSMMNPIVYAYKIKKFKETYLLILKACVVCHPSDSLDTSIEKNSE
Nature of the test: Displacement of […] from human A3 adenosine receptor expressed in CHO cells at 10 uM after 60 mins by liquid scintillation counting. Format: cell-based.

Another test has as its target Adenosine receptor A2a (Homo sapiens, UniProt P29274). Nature of the test: Displacement of [3H]CGS21680 from human A2A adenosine receptor expressed in HEK293 cells at 10 uM after 60 mins by liquid scintillation counting. Format: cell-based. A general note: In a radioligand displacement assay an active substance lowers the binding of a labelled ligand.
The target of test [3] is T3, Adenosine receptor A2b (Homo sapiens) (UniProt P29275).
T3 sequence (whole entry): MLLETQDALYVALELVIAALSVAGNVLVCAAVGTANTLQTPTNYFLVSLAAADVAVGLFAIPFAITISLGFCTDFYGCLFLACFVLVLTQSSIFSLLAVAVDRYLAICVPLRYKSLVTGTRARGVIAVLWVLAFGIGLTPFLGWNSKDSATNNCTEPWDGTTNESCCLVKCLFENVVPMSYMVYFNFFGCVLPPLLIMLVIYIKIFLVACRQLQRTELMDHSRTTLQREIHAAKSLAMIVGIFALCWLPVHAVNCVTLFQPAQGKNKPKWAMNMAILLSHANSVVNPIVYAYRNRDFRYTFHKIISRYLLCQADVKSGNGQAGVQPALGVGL
Description: Antagonist activity at human A2B adenosine receptor expressed in CHO cells assessed as inhibition of NECA-induced cAMP accumulation at 10 uM after 20 mins. Format: functional, cell-based. A general note: cAMP levels reflect the balance of adenylyl cyclase and phosphodiesterase activity.

A word on the inhibition: it is the drop in the measured response relative to a control, in per cent.

Sequence of Adenosine receptor A2a (P29274 whole entry): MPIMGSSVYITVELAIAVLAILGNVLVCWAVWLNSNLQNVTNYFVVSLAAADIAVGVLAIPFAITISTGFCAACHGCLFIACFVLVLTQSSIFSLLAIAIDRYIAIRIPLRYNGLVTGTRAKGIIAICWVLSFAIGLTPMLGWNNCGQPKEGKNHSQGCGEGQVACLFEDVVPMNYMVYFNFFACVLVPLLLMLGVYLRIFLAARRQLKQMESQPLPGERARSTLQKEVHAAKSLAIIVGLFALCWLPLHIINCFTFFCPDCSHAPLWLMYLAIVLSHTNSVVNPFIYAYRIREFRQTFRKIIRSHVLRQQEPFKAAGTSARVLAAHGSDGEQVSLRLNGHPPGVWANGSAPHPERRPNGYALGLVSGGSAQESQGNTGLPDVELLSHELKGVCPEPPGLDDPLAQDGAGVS

Consider `Cc1ccccc1-c1n[nH]c(NC(=O)[C@@H](C)Oc2ccccc2)n1`, for which the inhibition in test [1] was 6%; in test [2] it was 48%; on Adenosine receptor A2a it was 26%; in test [3], -3%.

For the compound `Cc1ccc(-c2n[nH]c(NC(=O)COc3ccccc3F)n2)cc1`, the inhibition in test [1] turned out to be 2%; in test [2], 50%; on Adenosine receptor A2a it was 2%; in test [3] it was 11%.
